Assay results as given in ChEMBL document CHEMBL4033672, “Synthesis and biological evaluation of chemokine receptor ligands with 2-benzazepine scaffold” (Eur J Med Chem, 2017).
One block for each compound: values may come before it. The source made the active and inactive calls. The rule behind the calls is not given here.

How the values were obtained:
[1] = target: T1, C-C chemokine receptor type 5 (Homo sapiens, UniProt P51681); assay: Intrinsic agonist activity at human CCR5 expressed in HEK293T cells co-expressing CAMYEL assessed as inhibition of forskolin-stimulated cAMP accumulation after 10 mins by BRET assay; type: functional, cell-based; settings: HEK-293T
Target sequence in this assay (P51681 whole entry, looked up): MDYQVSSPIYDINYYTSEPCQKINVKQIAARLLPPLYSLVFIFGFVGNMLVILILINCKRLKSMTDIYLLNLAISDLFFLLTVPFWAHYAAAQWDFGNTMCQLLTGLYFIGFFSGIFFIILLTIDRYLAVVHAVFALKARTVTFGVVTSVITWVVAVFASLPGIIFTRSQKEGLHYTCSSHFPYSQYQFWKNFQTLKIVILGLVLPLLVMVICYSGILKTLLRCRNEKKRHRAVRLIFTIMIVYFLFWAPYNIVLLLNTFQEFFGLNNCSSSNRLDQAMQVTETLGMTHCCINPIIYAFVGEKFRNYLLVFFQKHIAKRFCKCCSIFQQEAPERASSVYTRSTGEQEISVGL

[2] = target: T1, C-C chemokine receptor type 5; assay: Displacement of [3H]TAK-779 from CCR5 (unknown origin) at 1 uM after 120 mins by scintillation counting method relative to control
Target sequence in this assay (P51681 whole entry, looked up): as above

[3] = target: T2, C-C chemokine receptor type 2 (Homo sapiens, UniProt P41597); assay: Displacement of [3H]INCB3344 from human CCR2 expressed in human U2OS cells at 1 uM after 120 mins by scintillation spectrometric analysis relative to control; type: cell-based
Target sequence in this assay (P41597 whole entry, looked up): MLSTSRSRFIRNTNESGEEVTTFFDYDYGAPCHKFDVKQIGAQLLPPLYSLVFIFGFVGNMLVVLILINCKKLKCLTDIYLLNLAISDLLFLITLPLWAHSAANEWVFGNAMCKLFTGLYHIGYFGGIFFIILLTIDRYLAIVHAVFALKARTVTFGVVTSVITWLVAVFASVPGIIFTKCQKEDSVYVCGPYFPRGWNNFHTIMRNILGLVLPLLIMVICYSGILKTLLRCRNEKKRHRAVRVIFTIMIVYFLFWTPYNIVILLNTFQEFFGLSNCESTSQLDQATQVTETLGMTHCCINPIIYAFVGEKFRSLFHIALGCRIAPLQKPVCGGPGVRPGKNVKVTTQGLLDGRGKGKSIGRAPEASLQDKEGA

[4] = target: T1, C-C chemokine receptor type 5; assay: Positive allosteric modulation of human CCR5 expressed in HEK293T cells co-expressing CAMYEL assessed as increase in CCL5-induced inhibition of forskolin-stimulated cAMP accumulation after 10 mins by BRET assay; type: functional, cell-based; settings: HEK-293T
Target sequence in this assay (P51681 whole entry, looked up): as the sequence (P51681 whole entry, looked up) above

[5] = target: T1, C-C chemokine receptor type 5; assay: Positive allosteric modulation of human CCR5 expressed in HEK293T cells co-expressing CAMYEL assessed as increase in CCL4-induced inhibition of forskolin-stimulated cAMP accumulation after 10 mins by BRET assay; type: functional, cell-based, HEK-293T
Target sequence in this assay (P51681 whole entry): as the sequence (P51681 whole entry, looked up) above

[6] = target: T1, C-C chemokine receptor type 5; assay: Displacement of [3H]TAK-779 from CCR5 (unknown origin) after 120 mins by scintillation counting method
Target sequence in this assay (P51681 whole entry): as the sequence (P51681 whole entry, looked up) above

[7] = target: T2, C-C chemokine receptor type 2; assay: Antagonist activity at human CCR2b expressed in human Chem1 cells assessed as inhibition of human recombinant CCL2 induced Ca2+ mobilization preincubated for 10 mins followed by CCL2 induction measured every sec for 120 secs by Fluo-4-AM dye-based fluorescence assay; type: functional, cell-based
Target sequence in this assay (P41597 whole entry): as the sequence (P41597 whole entry, looked up) above

[8] = target: T2, C-C chemokine receptor type 2; assay: Displacement of [3H]INCB3344 from human CCR2 expressed in human U2OS cells after 120 mins by scintillation spectrometric analysis; type: cell-based
Target sequence in this assay (P41597 whole entry): as the sequence (P41597 whole entry, looked up) above

[9] = target: T1, C-C chemokine receptor type 5; assay: Negative allosteric modulation of human CCR5 expressed in HEK293T cells co-expressing CAMYEL assessed as decrease in CCL4-induced inhibition of forskolin-stimulated cAMP accumulation after 10 mins by BRET assay; type: functional, cell-based; settings: HEK-293T
Target sequence in this assay (P51681 whole entry, looked up): as the sequence (P51681 whole entry, looked up) above

[10] = target: T1, C-C chemokine receptor type 5; assay: Negative allosteric modulation of human CCR5 expressed in HEK293T cells co-expressing CAMYEL assessed as decrease in CCL5-induced inhibition of forskolin-stimulated cAMP accumulation after 10 mins by BRET assay; type: functional, cell-based; settings: HEK-293T
Target sequence in this assay (P51681 whole entry, looked up): as above

Structure (SMILES): CC(C)CN1CC(C(=O)Nc2ccc(CN(C)C3CCOCC3)cc2)=Cc2ccc([N+](=O)[O-])cc2C1=O
inhibition [2]: 0% | inhibition [3]: 9% | EC50 [5]: > 10 nM

Structure (SMILES): CC(C)CN1CC(C(=O)Nc2ccc(CN(C)C3CCOCC3)cc2)=Cc2c(cccc2[N+](=O)[O-])C1=O
inhibition [2]: 0% | inhibition [3]: 6% | EC50 [5]: > 10 nM

Structure (SMILES): CC(=O)Nc1ccc2c(c1)C(=O)N(CC(C)C)CC(C(=O)Nc1ccc(CN(C)C3CCOCC3)cc1)=C2
inhibition [2]: 0% | inhibition [3]: 15% | EC50 [5]: > 10 nM

Structure (SMILES): CC(C)CN1CC(C(=O)Nc2ccc(CN(C)C3CCOCC3)cc2)=Cc2ccc(NS(C)(=O)=O)cc2C1=O
inhibition [2]: 0% | inhibition [3]: 18% | EC50 [5]: > 10 nM

Structure (SMILES): CC(C)CN1CC(C(=O)Nc2ccc(S(=O)(=O)Nc3nccs3)cc2)=Cc2ccccc2C1=O
inhibition [2]: 0% | inhibition [3]: 18% | EC50 [5]: > 10 nM

Continued, values first:

Activity [1]: inactive | inhibition [2]: 0% | inhibition [3]: 18% | Activity [4]: inactive | EC50 [5]: 2470 nM
Structure (SMILES): CC(C)CN1CC(C(=O)Nc2ccc(CN(C)C3CCOCC3)cc2)=Cc2ccccc2C1=O

IC50 [6]: 2 nM | EC50 [5]: 7 nM
Structure (SMILES): Cc1ccc(-c2ccc3c(c2)C=C(C(=O)Nc2ccc(C[N+](C)(C)C4CCOCC4)cc2)CCC3)cc1

IC50 [7]: 3000 nM | inhibition [2]: 0% | inhibition [3]: 0% | EC50 [5]: > 10 nM
Structure (SMILES): Cc1ccc(-c2ccc3c(c2)C(=O)N(CC(C)C)CC(C(=O)Nc2ccc(CN(C)C4CCOCC4)cc2)=C3)cc1

IC50 [8]: 387 nM | IC50 [7]: 140 nM | Activity [9]: Active | inhibition [2]: 0% | EC50 [5]: > 10 nM | Activity [10]: Active
Structure (SMILES): Cc1ccc(-c2ccc3c(c2)C=C(C(=O)Nc2ccc(CN(C)C4CCOCC4)cc2)CN(CC(C)C)C3=O)cc1
